Reference: the supplement of paper PMC7840683
± gives the standard deviation of the averaged measurements.

System: HepaRG
Test: LDH release cytotoxicity, % of total lysis control; higher = more cytotoxic
Conditions: 48 h
Method in brief: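 Eight-point half-log series of test chemicals, the highest at 100 µM, were given in duplicate for 48 h to single-lot HepaRG cells on collagen I-coated 96-well plates in serum-free induction medium with 0.5% DMSO. A Tecan Safire read resorufin fluorescence from CytoTox-ONE as a measure of LDH in 50 µL spent medium, with 0.1% Triton X in total lysis wells. Percent cytotoxicity was normalized to on-plate vehicle and total lysis controls and averaged over the duplicates.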

Row | Structure (SMILES) | LDH release cytotoxicity (0.03162 µM) | LDH release cytotoxicity (0.1 µM) | LDH release cytotoxicity (0.3162278 µM) | LDH release cytotoxicity (1 µM) | LDH release cytotoxicity (3.16228 µM) | LDH release cytotoxicity (10 µM) | LDH release cytotoxicity (31.6228 µM) | LDH release cytotoxicity (100 µM) | LDH release cytotoxicity (0.031623 µM) | LDH release cytotoxicity (0.316228 µM) | LDH release cytotoxicity (0.01581 µM) | LDH release cytotoxicity (0.05 µM) | LDH release cytotoxicity (0.1581139 µM) | LDH release cytotoxicity (0.5 µM) | LDH release cytotoxicity (1.5811388 µM) | LDH release cytotoxicity (5 µM) | LDH release cytotoxicity (15.8114 µM) | LDH release cytotoxicity (50 µM)
1 | CCCCCCc1ccc(O)cc1O [4-Hexylresorcinol] | -1.87 ± 0.26% | -0.709 ± 0.041% | -0.736 ± 1.1% | -1.64 ± 0.45% | -1.6 ± 1% | -1.36 ± 0.29% | 0.152 ± 0.4% | 1.18 ± 0.84% | – | – | – | – | – | – | – | – | – | –
2 | COc1cc(C=O)ccc1O [4-Hydroxy-3-methoxybenzaldehyde] | – | -2.63 ± 0.42% | – | -4.06 ± 0.31% | -3.91 ± 0.7% | -3.69 ± 0.35% | -3.12 ± 0.07% | 0.307 ± 0.14% | -0.0885 ± 1.4% | -3.71 ± 0.71% | – | – | – | – | – | – | – | –
3 | CCC(=C(c1ccc(O)cc1)c1ccc(OCCN(C)C)cc1)c1ccccc1 [4-Hydroxytamoxifen] | – | -3.22 ± 0.47% | – | -3.76 ± 0.11% | -3.7 ± 0.16% | -3.42 ± 0.63% | -3.18 ± 0.93% | -0.0951 ± 1.1% | -1.94 ± 1% | -3.61 ± 1.1% | – | – | – | – | – | – | – | –
4 | CC(C)CC(C)O (stereo unspecified) [4-Methyl-2-pentanol] | -0.36 ± 0.0099% | -0.242 ± 0.16% | -1.1 ± 0.37% | -1.21 ± 0.61% | -1.33 ± 0.84% | -1.04 ± 0.65% | 0.165 ± 0.21% | 2.03 ± 1% | – | – | – | – | – | – | – | – | – | –
5 | Cc1ccc(N)cc1 [4-Methylaniline] | -1.74 ± 0.54% | -1.26 ± 0.25% | -1.71 ± 0.048% | -2.15 ± 0.07% | -1.82 ± 0.86% | -1.12 ± 0.11% | -1.47 ± 0.87% | 0.2 ± 0.81% | – | – | – | – | – | – | – | – | – | –
6 | Nc1ccc([N+](=O)[O-])cc1 [4-Nitroaniline] | -1.77 ± 1.4% | -2.08 ± 0.69% | -1.811 ± 0.018% | -1.58 ± 0.75% | -1.84 ± 0.43% | -0.905 ± 0.22% | 0.842 ± 1.3% | -0.219 ± 0.45% | – | – | – | – | – | – | – | – | – | –
7 | O=C(O)c1ccc([N+](=O)[O-])cc1 [4-Nitrobenzoic acid] | -2.11 ± 0.46% | -1.22 ± 0.03% | -0.728 ± 0.58% | -0.721 ± 1.3% | -1.62 ± 0.43% | -0.906 ± 0.7% | -0.392 ± 0.1% | 1.32 ± 1.1% | – | – | – | – | – | – | – | – | – | –
8 | O=[N+]([O-])c1ccc(O)cc1 [4-Nitrophenol] | -0.152 ± 0.3% | -1.48 ± 0.38% | -1.18 ± 0.11% | -1.8 ± 1.2% | -0.936 ± 0.28% | -1.26 ± 0.099% | -0.409 ± 0.81% | -0.082 ± 0.47% | – | – | – | – | – | – | – | – | – | –
9 | Cc1ccc([N+](=O)[O-])cc1 [4-Nitrotoluene] | -0.445 ± 0.2% | -1.19 ± 1.1% | -0.0775 ± 0.88% | -0.642 ± 0.3% | -0.56 ± 0.64% | -0.236 ± 0.032% | -0.713 ± 0.035% | 1.62 ± 0.18% | – | – | – | – | – | – | – | – | – | –
10 | CC(C)CCCCCCc1ccc(O)cc1 [4-Nonylphenol, branched] | -2.12 ± 0.23% | -1.46 ± 0.5% | -1.72 ± 0.52% | -1.24 ± 0.36% | -1.58 ± 0.073% | -1.23 ± 0.036% | -0.532 ± 0.65% | -0.17 ± 1% | – | – | – | – | – | – | – | – | – | –
11 | CCCCCCCCCc1ccc(O)cc1 [4-Nonylphenol] | -1.27 ± 0.19% | -0.659 ± 0.11% | -1.49 ± 0.82% | -1.65 ± 0.14% | -0.715 ± 0.039% | 0.445 ± 1.6% | -0.17 ± 0.57% | 1.51 ± 1.1% | – | – | – | – | – | – | – | – | – | –
12 | CCCCCc1ccc(N)cc1 [4-Pentylaniline] | -0.0179 ± 1.1% | -1.43 ± 0.21% | -0.689 ± 0.038% | -0.976 ± 0.26% | -0.886 ± 0.18% | -0.634 ± 0.16% | -0.209 ± 0.75% | 1.34 ± 0.21% | – | – | – | – | – | – | – | – | – | –
13 | C1CC2OC2CC1C1CO1 (stereo unspecified) [4-Vinyl-1-cyclohexene dioxide] | -0.357 ± 0.0064% | -1.96 ± 0.94% | -2.19 ± 0.42% | -1.67 ± 0.053% | -1.29 ± 0.3% | -1.43 ± 0.099% | -0.613 ± 1.2% | 78.1 ± 2.9% | – | – | – | – | – | – | – | – | – | –
14 | CC1(C)NC(=O)NC1=O [5,5-Dimethylhydantoin] | -2.18 ± 0.37% | -2.28 ± 1% | -2.14 ± 0.96% | -3.5 ± 0.27% | -1.38 ± 0.42% | -1.82 ± 0.26% | -1.07 ± 0.056% | 1.93 ± 1.1% | – | – | – | – | – | – | – | – | – | –
15 | O=C1NC(=O)C(c2ccccc2)(c2ccccc2)N1 [5,5-Diphenylhydantoin] | – | – | – | – | – | – | – | – | – | – | -5.31 ± 1.9% | -5.08 ± 1.3% | -5.88 ± 1% | -6.19 ± 1.8% | -4.95 ± 1.6% | 40.5 ± 6.5% | 50.1 ± 6.8% | 44.7 ± 3.1%
16 | O=C(O)c1cc(Oc2ccc(C(F)(F)F)cc2Cl)ccc1[N+](=O)[O-] [5-(2-Chloro-4-(trifluoromethyl)phenoxy)-2-nitrobenzoic acid] | -0.08 ± 0.59% | -1.4 ± 0.2% | -0.769 ± 0.18% | -1.39 ± 0.35% | -0.738 ± 0.35% | -0.0876 ± 0.044% | 0.334 ± 0.06% | 2.95 ± 0.47% | – | – | – | – | – | – | – | – | – | –
17 | Cc1ccc(N)cc1O [5-Amino-2-methylphenol] | -0.861 ± 0.26% | -1.2 ± 1.2% | -0.469 ± 1.2% | -1.04 ± 0.78% | -0.613 ± 0.33% | -0.636 ± 0.094% | -0.124 ± 0.049% | 0.121 ± 0.6% | – | – | – | – | – | – | – | – | – | –
